Values quoted from earlier work in patent US20110282046A1, “PROCESS FOR PREPARATION OF CIS-NUCLEOSIDE DERIVATIVE” (priority 2009, published 2011).
Like-named read-outs stand apart in the source and are kept apart here.

Settings: for volume of water in which 1 g dissolves: Merck Index Entry no. 8869

solubility in water (water, Merck Index Entry no. 8332)	volume of water in which 1 g dissolves (boiling water)	volume of water in which 1 g dissolves (cold water)	Compound
0.20 g in 100 ml water			O=C(O)c1ccccc1O [salicylic acid]
	1 mL	13 mL	O=C(O)CCC(=O)O [Succinic acid]
